From US9980943B2, “Methods of treating muscular dystrophy” (BOARD OF REGENTS OF THE NEVADA SYSTEM OF HIGHER EDUCATION, …, priority 2013, dated 2018)

How the values were obtained:
Format in all cases: cell-based, mouse
[1] = test system: α7 integrin (LacZ reporter in α7βgal+/− myoblasts); experiment: Myoblast α7+/LacZ integrin FDG assay (Burkin assay in myoblasts, 96-well); conditions: α7+/LacZ myoblasts, 96-well
[2] = test system: α7 integrin (LacZ reporter in α7+/LacZ myotubes); experiment: Myotube α7 integrin FDG assay (Burkin assay in myotubes, 96-well); conditions: myotubes
[3] = test system: β-galactosidase in CMV-LacZ C2C12 myotubes; experiment: CMV-LacZ secondary screen in C2C12 myotubes (β-Gal stabilizing assay); conditions: for CMV-LACZ in Myotubes, signal relative to DMSO: C2C12 CMV-LacZ myotubes, fold relative to DMSO; for CMV-LACZ in Myotubes (β-galactosidase activity relative to DMSO): CMV-LacZ C2C12 myotubes, 96-well format
In short: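 First, C2C12 myoblasts were transfected with a linearized CMV-LACZ vector and clonal lines selected by FDG β-gal assay. Then cells were exposed to compounds at 0.5, 1, 5, 10, 20 and 40 μM in 96-well format, two replicates each, and β-gal measured.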

| Compound | Burkin Assay in Myoblasts, signal relative to DMSO ([1]; 0.5 uM) | Burkin Assay in Myoblasts, signal relative to DMSO ([1]; 1 uM) | Burkin Assay in Myoblasts, signal relative to DMSO ([1]; 5 uM) | Burkin Assay in Myoblasts, signal relative to DMSO ([1]; 10 uM) | CMV-LACZ in Myotubes, signal relative to DMSO ([3]; 5 uM) | CMV-LACZ in Myotubes, signal relative to DMSO ([3]; 10 uM) | CMV-LACZ in Myotubes, signal relative to DMSO ([3]; 20 uM) | CMV-LACZ in Myotubes, signal relative to DMSO ([3]; 40 uM) | Burkin Assay in Myoblasts, value relative to DMSO ([1]; 0.5 uM) | Burkin Assay in Myoblasts, value relative to DMSO ([1]; 1 uM) | Burkin Assay in Myoblasts, value relative to DMSO ([1]; 5 uM) | Burkin Assay in Myoblasts, value relative to DMSO ([1]; 10 uM) | Burkin Assay in Myoblasts, value relative to DMSO ([1]; 20 uM) | Burkin Assay in Myoblasts, value relative to DMSO ([1]; 40 uM) | Burkin Assay in Myotubes (signal relative to DMSO) ([2]; 0.5 uM) | Burkin Assay in Myotubes (signal relative to DMSO) ([2]; 1 uM) | Burkin Assay in Myotubes (signal relative to DMSO) ([2]; 5 uM) | Burkin Assay in Myotubes (signal relative to DMSO) ([2]; 10 uM) | Burkin Assay in Myotubes (signal relative to DMSO) ([2]; 20 uM) | Burkin Assay in Myotubes (signal relative to DMSO) ([2]; 40 uM) | also measured |
| --- | --- | --- | --- | --- | --- | --- | --- | --- | --- | --- | --- | --- | --- | --- | --- | --- | --- | --- | --- | --- | --- |
| O=C(COC(=O)Cn1cnc2ccccc21)Nc1cccc([N+](=O)[O-])c1 [MLS001005283-01] | 0.8702 | 0.8582 | 0.9346 | 0.8908 | 0.9005 | 0.9051 | 1.032 | 1.1425 |  |  |  |  |  |  |  |  |  |  |  |  | Burkin Assay in Myoblasts, signal relative to DMSO ([1]; 20 uM): 0.8965; Burkin Assay in Myoblasts, signal relative to DMSO ([1]; 40 uM): 0.9301; Burkin Assay in Myotubes, α7 integrin LacZ reporter signal relative to DMSO ([2]; 0.5 uM): 0.9811; Burkin Assay in Myotubes, α7 integrin LacZ reporter signal relative to DMSO ([2]; 1 uM): 0.9951; Burkin Assay in Myotubes, α7 integrin LacZ reporter signal relative to DMSO ([2]; 5 uM): 0.8583; Burkin Assay in Myotubes, α7 integrin LacZ reporter signal relative to DMSO ([2]; 10 uM): 0.9141; Burkin Assay in Myotubes, α7 integrin LacZ reporter signal relative to DMSO ([2]; 20 uM): 0.9432; Burkin Assay in Myotubes, α7 integrin LacZ reporter signal relative to DMSO ([2]; 40 uM): 0.7596 |
| Cc1ccccc1C(=O)Nc1scc(-c2ccc(Br)cc2)c1C(=O)O [MLS001179267-01] |  |  |  |  | 0.9091 | 0.8244 | 0.6141 | 0.5554 | 0.983 | 1.031 | 0.9797 | 0.9902 | 0.9305 | 0.95 | 0.947 | 0.8787 | 0.8908 | 0.559 | 0.8589 | 0.5111 |  |
| CCNC(=O)COC(=O)c1cc(-c2ccco2)nc2ccccc12 [MLS000772580-01] |  |  |  |  | 0.8986 | 1.0933 | 1.029 | 1.088 | 0.8487 | 0.9736 | 0.8554 | 0.8513 | 0.7938 | 0.7251 | 0.851 | 0.8999 | 1.323 | 0.9474 | 0.9413 | 0.8535 |  |
| CCOc1ccc(NC(=O)CN2C(=O)NC(CCSC)C2=O)cc1 (stereo not drawn) [MLS000772430-01] |  |  |  |  |  |  |  |  |  |  |  |  |  |  |  |  |  |  |  |  | fold induction at 0.5 µM ([1]; Mus musculus, Myoblast, 48 h, 0.5 uM, read-out: Burkin Assay in Myoblasts, value relative to DMSO): 0.973; fold induction at 1 µM ([1]; Mus musculus, Myoblast, 48 h, 1 uM, read-out: Burkin Assay in Myoblasts, value relative to DMSO): 0.936; fold induction at 5 µM ([1]; Mus musculus, Myoblast, 48 h, 5 uM, read-out: Burkin Assay in Myoblasts, value relative to DMSO): 1.01; fold induction at 10 µM ([1]; Mus musculus, Myoblast, 48 h, 10 uM, read-out: Burkin Assay in Myoblasts, value relative to DMSO): 1.05; fold induction at 20 µM ([1]; Mus musculus, Myoblast, 48 h, 20 uM, read-out: Burkin Assay in Myoblasts, value relative to DMSO): 0.881; fold induction at 40 µM ([1]; Mus musculus, Myoblast, 48 h, 40 uM, read-out: Burkin Assay in Myoblasts, value relative to DMSO): 0.896; fold induction at 0.5 µM ([2]; Mus musculus, Myotube, 0.5 uM, read-out: Burkin Assay in Myotubes (signal relative to DMSO)): 1.03; fold induction at 1 µM ([2]; Mus musculus, Myotube, 1 uM, read-out: Burkin Assay in Myotubes (signal relative to DMSO)): 1.28; fold induction at 5 µM ([2]; Mus musculus, Myotube, 5 uM, read-out: Burkin Assay in Myotubes (signal relative to DMSO)): 1.04; fold induction at 10 µM ([2]; Mus musculus, Myotube, 10 uM, read-out: Burkin Assay in Myotubes (signal relative to DMSO)): 1.25; fold induction at 20 µM ([2]; Mus musculus, Myotube, 20 uM, read-out: Burkin Assay in Myotubes (signal relative to DMSO)): 1.26; fold induction at 40 µM ([2]; Mus musculus, Myotube, 40 uM, read-out: Burkin Assay in Myotubes (signal relative to DMSO)): 1.05; CMV-LACZ in Myotubes (β-galactosidase activity relative to DMSO) ([3]; 5 uM): 0.8183; CMV-LACZ in Myotubes (β-galactosidase activity relative to DMSO) ([3]; 10 uM): 0.9094; CMV-LACZ in Myotubes (β-galactosidase activity relative to DMSO) ([3]; 20 uM): 0.8956; CMV-LACZ in Myotubes (β-galactosidase activity relative to DMSO) ([3]; 40 uM): 1.037 |
| Cc1ccc(C2=C(CC(=O)O)C(=O)CC2)cc1 [MLS000553673-01] |  |  |  |  | 0.8021 | 0.9603 | 1.005 | 0.9127 | 1.009 | 0.8952 | 1.038 | 1.0007 | 0.9043 | 0.8892 | 0.8749 | 0.8923 | 1.304 | 1.161 | 1.088 | 1.134 |  |
| NS(=O)(=O)c1ccc(NC(=O)c2ccc(CNS(=O)(=O)c3cc(C(F)(F)F)ccc3Cl)cc2)cc1 [MLS000393110-01] | 0.9045 | 0.9273 | 1.074 | 1.088 | 1.103 | 0.9673 | 1.0745 | 0.8895 |  |  |  |  |  |  |  |  |  |  |  |  | Burkin Assay in Myoblasts, signal relative to DMSO ([1]; 20 uM): 1.012; Burkin Assay in Myoblasts, signal relative to DMSO ([1]; 40 uM): 0.71; Burkin Assay in Myotubes, α7 integrin LacZ reporter signal relative to DMSO ([2]; 0.5 uM): 1.139; Burkin Assay in Myotubes, α7 integrin LacZ reporter signal relative to DMSO ([2]; 1 uM): 0.9276; Burkin Assay in Myotubes, α7 integrin LacZ reporter signal relative to DMSO ([2]; 5 uM): 1.022; Burkin Assay in Myotubes, α7 integrin LacZ reporter signal relative to DMSO ([2]; 10 uM): 0.9816; Burkin Assay in Myotubes, α7 integrin LacZ reporter signal relative to DMSO ([2]; 20 uM): 0.6726; Burkin Assay in Myotubes, α7 integrin LacZ reporter signal relative to DMSO ([2]; 40 uM): 0.8173 |
